Test results taken from US9290511B2, “Thieno-pyrimidines, useful as potassium channel inhibitors” (XENTION LIMITED, priority 2011, dated 2016).

molecular target: T1, Kir3.1/3.4 (Rattus norvegicus, UniProt P48548+P63251); experiment: Kir3.1/3.4 Electrophysiology Method (manual whole-cell patch clamp); assay type: cell-based; settings: Electrophysiology Method (TABLE 1)
T1 construct: expressed in transfected cells
T1 sequence (P63251 1-501): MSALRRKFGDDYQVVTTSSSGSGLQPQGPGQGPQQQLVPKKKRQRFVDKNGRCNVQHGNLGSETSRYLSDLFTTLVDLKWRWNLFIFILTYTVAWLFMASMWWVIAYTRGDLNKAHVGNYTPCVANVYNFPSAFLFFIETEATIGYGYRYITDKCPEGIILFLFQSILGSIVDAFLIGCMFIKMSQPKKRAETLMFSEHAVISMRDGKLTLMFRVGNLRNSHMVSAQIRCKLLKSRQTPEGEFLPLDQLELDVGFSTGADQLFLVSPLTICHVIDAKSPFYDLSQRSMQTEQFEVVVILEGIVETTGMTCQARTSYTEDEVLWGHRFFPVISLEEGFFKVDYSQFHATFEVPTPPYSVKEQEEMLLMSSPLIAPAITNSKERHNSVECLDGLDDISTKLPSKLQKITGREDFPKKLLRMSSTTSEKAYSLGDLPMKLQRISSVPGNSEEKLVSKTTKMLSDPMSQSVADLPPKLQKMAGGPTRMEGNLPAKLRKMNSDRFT
T1 sequence (P48548 1-419): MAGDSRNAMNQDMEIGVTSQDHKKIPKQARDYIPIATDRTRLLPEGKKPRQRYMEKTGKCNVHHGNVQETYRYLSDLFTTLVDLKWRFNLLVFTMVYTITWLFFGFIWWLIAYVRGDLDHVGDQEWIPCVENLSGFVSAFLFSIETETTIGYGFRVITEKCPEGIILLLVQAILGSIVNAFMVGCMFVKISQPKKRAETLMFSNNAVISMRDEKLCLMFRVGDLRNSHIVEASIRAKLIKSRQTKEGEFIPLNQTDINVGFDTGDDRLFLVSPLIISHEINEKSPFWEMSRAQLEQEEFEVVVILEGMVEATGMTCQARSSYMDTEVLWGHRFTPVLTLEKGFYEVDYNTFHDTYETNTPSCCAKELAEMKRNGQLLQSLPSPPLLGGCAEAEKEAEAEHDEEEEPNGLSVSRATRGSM
In short: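 Manual whole-cell patch clamp on HEK293 cells stably expressing rat Kir3.1/3.4, with GTPγS in the pipette. Cells were held at −60 mV and stepped to +60 mV, then ramped to −140 mV every 10 s. Steady-state inhibition at −140 mV was measured after subtracting leak recorded in zero-K+ bath.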

| Structure (SMILES) | IC50 |
| --- | --- |
| CC(C)CC(=O)Nc1sc2nc(N3CCC(COCCN4CCCC4)CC3)ncc2c1-c1ccccc1 [Example 303] | < 500 nM |
| CC(C)C(=O)Nc1sc2nc(N3CCC(COCCN4CCCC4)CC3)ncc2c1-c1ccccc1 [Example 304] | < 500 nM |
| NC(=O)C1CN(c2nc(N3CCC(COCCN4CCCC4)CC3)nc3scc(-c4ccccc4)c23)CCO1 (stereo not drawn) [Example 305] | < 500 nM |
| NC(=O)C1CCN(c2nc(N3CCOCC3)c3c(-c4ccccc4)csc3n2)C1 (stereo not drawn) [Example 306] | 3000 to 10000 nM |
| COCC1CCN(c2nc(OC3CC4CC3CN4)nc3scc(-c4ccccc4)c23)CC1 (stereo not drawn) [Example 307] | < 500 nM |
| c1ccc(-c2coc3ncnc(N4CCC(COCCN5CCCC5)CC4)c23)cc1 [Example 308, 5-phenyl-4-[4-(2-pyrrolidin-1-ylethoxymethyl)-1-piperidyl]furo[2,3-d]pyrimidine] | < 500 nM |
| NC(=O)C1CCN(c2nc(N3CC4CC3CO4)c3c(-c4ccccc4)csc3n2)C1 (stereo not drawn) [Example 309] | 3000 to 10000 nM |
| NC(=O)C1CCN(c2nc(N3C4CCC3CC(CO)C4)c3c(-c4ccccc4)csc3n2)C1 (stereo not drawn) [Example 310] | 500 to 3000 nM |
| c1cc(-c2csc3ncnc(N4CCC(COCCN5CCCC5)CC4)c23)ccn1 [Example 311] | 500 to 3000 nM |
| COc1cccc(-c2csc3ncnc(N4CCC(COCCN5CCCC5)CC4)c23)c1 [Example 312] | < 500 nM |
| FC(F)(F)Oc1cccc(-c2csc3ncnc(N4CCC(COCCN5CCCC5)CC4)c23)c1 [Example 313] | < 500 nM |
| Nc1nc(N2CCC(COCCN3CCCC3)CC2)c2c(-c3ccccc3)csc2n1 [Example 314, 5-phenyl-4-[4-(2-pyrrolidin-1-ylethoxymethyl)-1-piperidyl]thieno[2,3-d]pyrimidin-2-amine] | < 500 nM |
| c1nc(N2CCC(COCCN3CCCC3)CC2)c2c(-c3ccoc3)csc2n1 [Example 315] | < 500 nM |
| c1nc(N2CCC(COCCN3CCCC3)CC2)c2c(-c3ccsc3)csc2n1 [Example 317] | < 500 nM |
| CC(C)(C)NC(C)(C)C#Cc1ncnc2scc(-c3ccccc3)c12 [Example 318] | < 500 nM |
| c1nc(N2CCC(COCCN3CCCC3)CC2)c2c(-c3ccc4c(c3)OCO4)csc2n1 [Example 319] | < 500 nM |
| c1ccc(-c2csc3ncnc(N4CCC(COCCN5CCCC5)CC4)c23)nc1 [Example 320] | 500 to 3000 nM |
| c1ccc(-c2csc3nc(C4CC4)nc(N4C5CCC4CC(NC4CCC4)C5)c23)cc1 (stereo not drawn) [Example 321, N-cyclobutyl-8-(2-cyclopropyl-5-phenyl-thieno[2,3-d]pyrimidin-4-yl)-8-azabicyclo[3.2.1]octan-3-amine] | < 500 nM |
| c1ccc(-c2csc3nc(C4CC4)nc(N4C5CCC4CC(N4CCC4)C5)c23)cc1 (stereo not drawn) [Example 322] | < 500 nM |

| Structure (SMILES) | IC50 |
| --- | --- |
| c1ccc(-c2csc3ncnc(N4C5CCC4CC(CNC4CCC4)C5)c23)cc1 (stereo not drawn) [Example 323] | < 500 nM |
| c1cncc(-c2csc3ncnc(N4CCC(COCCN5CCCC5)CC4)c23)c1 [Example 324] | 500 to 3000 nM |
| c1ccc(-c2csc3ncnc(N4C5CCC4CC(N4CCC4)C5)c23)cc1 (stereo not drawn) [Example 326] | < 500 nM |
| CC(C)NC1CC2CCC(C1)N2c1ncnc2scc(-c3ccccc3)c12 (stereo not drawn) [Example 327, N-isopropyl-8-(5-phenylthieno[2,3-d]pyrimidin-4-yl)-8-azabicyclo[3.2.1]octan-3-amine] | < 500 nM |
| CC(C)Oc1ncccc1-c1csc2ncnc(N3CCC(COCCN4CCCC4)CC3)c12 [Example 328] | < 500 nM |
| COc1ccccc1-c1csc2ncnc(N3CCC(COCCN4CCCC4)CC3)c12 [Example 329] | < 500 nM |
| CN(C)C(=O)c1ccccc1-c1csc2ncnc(N3CCC(COCCN4CCCC4)CC3)c12 [Example 330] | 3000 to 10000 nM |
| CCOc1ncccc1-c1csc2ncnc(N3CCC(COCCN4CCCC4)CC3)c12 [Example 331] | < 500 nM |
| CN(C)C(=O)c1cccc(-c2csc3ncnc(N4CCC(COCCN5CCCC5)CC4)c23)c1 [Example 332] | 500 to 3000 nM |
| CC(C)(C)NCC1CC2CCC(C1)N2c1ncnc2scc(-c3ccccc3)c12 (stereo not drawn) [Example 333] | < 500 nM |
| CC(C)NCC1CC2CCC(C1)N2c1ncnc2scc(-c3ccccc3)c12 (stereo not drawn) [Example 334] | < 500 nM |
| c1ccc(-c2csc3ncnc(N4C5CCC4CC(CN4CCCC4)C5)c23)cc1 (stereo not drawn) [Example 335] | < 500 nM |
| FC(F)(F)c1nc(N2CCOCC2)c2c(-c3ccccc3)csc2n1 [Example 336] | 500 to 3000 nM |
| NC(=O)C1CCN(c2nc(N3C4CCC3CC(NC3CCC3)C4)c3c(-c4ccccc4)csc3n2)C1 (stereo not drawn) [Example 337, 1-[4-[3-(cyclobutylamino)-8-azabicyclo[3.2.1]octan-8-yl]-5-phenyl-thieno[2,3-d]pyrimidin-2-yl]pyrrolidine-3-carboxamide] | 500 to 3000 nM |
| FC(F)(F)c1nc(N2CCC(COCCN3CCCC3)CC2)c2c(-c3ccccc3)csc2n1 [Example 340, 5-phenyl-4-[4-(2-pyrrolidin-1-ylethoxymethyl)-1-piperidyl]-2-(trifluoromethyl)thieno[2,3-d]pyrimidine] | < 500 nM |
| FC(F)(F)Oc1ccccc1-c1csc2ncnc(N3C4CCC3CC(NC3CCC3)C4)c12 (stereo not drawn) [Example 341] | < 500 nM |
| COc1ccccc1-c1csc2ncnc(N3C4CCC3CC(NC3CCC3)C4)c12 (stereo not drawn) [Example 342] | < 500 nM |
| Cc1ccccc1-c1csc2ncnc(N3C4CCC3CC(NC3CCC3)C4)c12 (stereo not drawn) [Example 344] | < 500 nM |
| COc1ncccc1-c1csc2ncnc(N3C4CCC3CC(NC3CCC3)C4)c12 (stereo not drawn) [Example 345] | < 500 nM |

| Structure (SMILES) | IC50 |
| --- | --- |
| COc1ncc(F)cc1-c1csc2ncnc(N3C4CCC3CC(NC3CCC3)C4)c12 (stereo not drawn) [Example 346] | 500 to 3000 nM |
| CN(C)C(=O)c1sc2ncnc(N3C4CCC3CC(N(C)C3CCC3)C4)c2c1-c1ccccc1 (stereo not drawn) [Example 347] | < 500 nM |
| COC1CC2CCC(C1)N2c1nc(OC2CC3CC2CN3)nc2scc(-c3ccccc3)c12 (stereo not drawn) [Example 348] | < 500 nM |
| c1ccc(-c2csc3nc(OC4CC5CC4CN5)nc(N4C5CCC4COC5)c23)cc1 (stereo not drawn) [Example 349, 8-[2-(2-azabicyclo[2.2.1]heptan-5-yloxy)-5-phenyl-thieno[2,3-d]pyrimidin-4-yl]-3-oxa-8-azabicyclo[3.2.1]octane] | < 500 nM |
| COc1ccccc1-c1csc2ncnc(N3C4CCC3CC(N(C)C3CCC3)C4)c12 (stereo not drawn) [Example 350] | < 500 nM |
| COc1ncccc1-c1csc2ncnc(N3C4CCC3CC(N(C)C3CCC3)C4)c12 (stereo not drawn) [Example 351, N-cyclobutyl-8-[5-(2-methoxy-3-pyridyl)thieno[2,3-d]pyrimidin-4-yl]-N-methyl-8-azabicyclo[3.2.1]octan-3-amine] | < 500 nM |
| COCC1CC2CCC(C1)N2c1nc(OC2CC3CC2CN3)nc2scc(-c3ccccc3)c12 (stereo not drawn) [Example 352] | < 500 nM |
| CN(C)C(=O)c1sc2ncnc(N3C4CCC3CC(N3CCCC3)C4)c2c1-c1ccccc1 (stereo not drawn) [Example 353, N,N-dimethyl-5-phenyl-4-(3-pyrrolidin-1-yl-8-azabicyclo[3.2.1]octan-8-yl)thieno[2,3-d]pyrimidine-6-carboxamide] | < 500 nM |
| CC(C)NC(=O)c1sc2ncnc(N3C4CCC3CC(N3CCCC3)C4)c2c1-c1ccccc1 (stereo not drawn) [Example 354] | < 500 nM |
| CN(C)C(=O)c1sc2ncnc(N3C4CCC3CC(COCCN3CCCC3)C4)c2c1-c1ccccc1 (stereo not drawn) [Example 356] | < 500 nM |
| CC(C)NC(=O)c1sc2ncnc(N3C4CCC3CC(COCCN3CCCC3)C4)c2c1-c1ccccc1 (stereo not drawn) [Example 357] | < 500 nM |
| COc1ccccc1-c1csc2nc(C3CC3)nc(N3CCC(COCCN4CCCC4)CC3)c12 [Example 358, 2-cyclopropyl-5-(2-methoxyphenyl)-4-[4-(2-pyrrolidin-1-ylethoxymethyl)-1-piperidyl]thieno[2,3-d]pyrimidine] | < 500 nM |
| FC(F)(F)c1nc(N2C3CCC2CC(NC2CCC2)C3)c2c(-c3ccccc3)csc2n1 (stereo not drawn) [Example 359] | < 500 nM |
| c1ccc(-c2csc3nc(C4CC4)nc(N4CCC(COCCN5CCCC5)CC4)c23)cc1 [Example 360] | < 500 nM |
| CNC(=O)c1sc2ncnc(N3C4CCC3CC(COCCN3CCCC3)C4)c2c1-c1ccccc1 (stereo not drawn) [Example 361] | < 500 nM |
| COc1ccccc1-c1csc2ncnc(N3C4CCC3CC(COCCN3CCCC3)C4)c12 (stereo not drawn) [Example 362] | < 500 nM |
| COc1ncccc1-c1csc2ncnc(N3C4CCC3CC(COCCN3CCCC3)C4)c12 (stereo not drawn) [Example 363] | < 500 nM |
| CN(C)C(=O)c1ccccc1-c1csc2ncnc(N3C4CCC3CC(COCCN3CCCC3)C4)c12 (stereo not drawn) [Example 364] | < 500 nM |
| COc1ncccc1-c1csc2ncnc(N3C4CCC3CC(CO)C4)c12 (stereo not drawn) [Example 365] | 500 to 3000 nM |
